Source: ChEMBL document CHEMBL3271943, “P-Aminobenzoic acid derivatives. Mode of action and structure-activity relationships in a cell-free system (Escherichia coli)” (J Med Chem, 1977)
The source made the active and inactive calls. The rule behind the calls is not given here.

What was measured:
Escherichia coli [1] = assay: microbe, parasite or virus in culture; conditions: 24 h, read-out: ID50
Description: Antimicrobial activity against Escherichia coli assessed as growth inhibition after 24 hrs by turbidimetric analysis

physchem [2] = conditions: aqueous solution
Description: Hydrolytic dissociation constant, pKa of the compound in aqueous solution at 50 degC

Albumin = Albumin (Homo sapiens, UniProt P02768); assay: Binding affinity to human serum albumin at 100 umol/l by equilibrium dialysis technique; assay type: ADME; conditions: isolated protein, 100 µM
physchem [3] = assay: physchem
Description: Dissociation constant, pKa of the compound by spectrophotometric analysis

[4] = octanol/water
Description: Lipophilic-hydrophilic balance, Rm of the compound by TLC analysis

Enterococcus faecalis [5] = assay: Induction of Streptococcus faecalis growth; assay type: functional, organism-based
Escherichia coli [6] = assay: Inhibition of Escherichia coli dihydropteroic acid synthesizing system-mediated folate production at 50 to 250 umol/l
[7] = buffer
Description: Solubility of the compound in water

Escherichia coli [8] = assay: Reversal of sulfapyridine-mediated growth inhibition of Escherichia coli at 4 to 400 umol/l; assay type: functional, organism-based
Escherichia coli [9] = assay: Reversal of sulfabenzene-mediated growth inhibition of Escherichia coli at 4 to 400 umol/l; assay type: functional, organism-based
Enterococcus faecalis [10] = assay: Growth inhibition of Streptococcus faecalis; assay type: functional, organism-based

Albumin, sequence (P02768 whole entry): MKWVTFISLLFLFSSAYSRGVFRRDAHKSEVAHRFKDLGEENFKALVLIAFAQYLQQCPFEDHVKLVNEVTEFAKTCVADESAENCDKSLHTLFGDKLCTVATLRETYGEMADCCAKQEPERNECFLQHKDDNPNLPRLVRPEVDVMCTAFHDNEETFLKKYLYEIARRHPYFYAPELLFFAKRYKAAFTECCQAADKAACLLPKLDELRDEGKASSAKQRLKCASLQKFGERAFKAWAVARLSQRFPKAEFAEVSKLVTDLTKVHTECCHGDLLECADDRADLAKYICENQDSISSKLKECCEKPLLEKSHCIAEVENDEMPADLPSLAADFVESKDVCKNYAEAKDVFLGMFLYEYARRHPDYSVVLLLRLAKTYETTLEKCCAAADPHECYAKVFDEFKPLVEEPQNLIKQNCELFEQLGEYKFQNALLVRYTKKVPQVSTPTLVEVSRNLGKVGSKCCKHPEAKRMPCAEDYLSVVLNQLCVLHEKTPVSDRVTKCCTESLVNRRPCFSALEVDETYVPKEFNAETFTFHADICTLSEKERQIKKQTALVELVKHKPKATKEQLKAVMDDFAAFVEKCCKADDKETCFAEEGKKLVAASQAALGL

| SMILES | IC50 (Escherichia coli [1]) | log(PB) (Albumin) | pKa (physchem [3]) | Rm [4] | further results |
| --- | --- | --- | --- | --- | --- |
| Nc1ccc(C(=O)O)c([N+](=O)[O-])c1 | 100 µM | 1.33 | 2.78 | 2.3 | pKa (physchem [2]): 3.22 |
| Nc1nc(=O)c2nc(CNc3ccc(C(=O)N[C@@H](CCC(=O)O)C(=O)O)cc3)cnc2[nH]1 | – | – | – | – | Activity (Enterococcus faecalis [5]): Active |
| Nc1ccc(C(=O)O)c(O)c1 [AMINOSALICYLIC ACID] | 25 µM | 1.57 | 3.52 | 1.92 | pKa (physchem [2]): 3.62; inhibition (Escherichia coli [6]): inactive |
| Cc1cc(C(=O)O)ccc1N | 120 µM | 1.37 | 4.62 | 1.6 | – |
| CCCCCCOc1cc(C(=O)O)ccc1N | 85 µM | 1.97 | 4.47 | – | solubility [7]: soluble; inhibition (Escherichia coli [6]): inactive |
| CCCCCCCCOc1cc(N)ccc1C(=O)O | 25 µM | – | 5.4 | 4.25 | solubility [7]: soluble |
| CCOc1cc(N)ccc1C(=O)O | 130 µM | 1.56 | 5.09 | 1.31 | solubility [7]: soluble |
| Cl.Nc1ccc(C(=O)O)cc1N | 40 µM | 0.95 | 4.84 | – | – |
| C=CCOc1cc(N)ccc1C(=O)O | 125 µM | 1.63 | 5.01 | 1.68 | solubility [7]: soluble |
| Nc1ccc(C(=O)O)cc1 [AMINOBENZOIC ACID] | – | – | – | 1.21 | pKa (physchem [2]): 4.67 |
| Nc1ccc(C(=O)O)cc1F | 13 µM | 1.52 | 4.35 | 1.66 | inhibition (Escherichia coli [6]): Active |
| Nc1ccc(C(=O)O)cc1O | 85 µM | 1.27 | 4.59 | – | – |
| CCCCOc1cc(N)ccc1C(=O)O | 125 µM | 1.69 | 5.25 | 2.4 | solubility [7]: soluble |
| Nc1ccc(C(=O)O)c(Cl)c1 | 45 µM | 1.36 | 3.88 | 2.17 | pKa (physchem [2]): 3.93; inhibition (Escherichia coli [6]): inactive |
| Nc1ccc(C(=O)O)cc1C(=O)O | 120 µM | 1.82 | – | – | – |
| Nc1nc2c(c(=O)[nH]1)N=C(CNc1ccc(C(=O)O)cc1)CN2 | – | – | – | – | Activity (Escherichia coli [8]): Active; Activity (Escherichia coli [9]): Active |
| CC(C)CCOc1cc(N)ccc1C(=O)O | 125 µM | – | 5.17 | 2.7 | solubility [7]: soluble |
| Cc1cc(N)ccc1C(=O)O | 30 µM | 1.16 | 4.83 | 1.73 | – |
| Nc1nc(O)c2nc(CNc3ccc(C(=O)O)cc3)cnc2n1 | – | – | – | – | Activity (Enterococcus faecalis [5]): Active |

| SMILES | IC50 (Escherichia coli [1]) | log(PB) (Albumin) | pKa (physchem [3]) | Rm [4] | further results |
| --- | --- | --- | --- | --- | --- |
| COc1cc(N)ccc1C(=O)O | 100 µM | 1.26 | 5.04 | – | pKa (physchem [2]): 5.1 |
| CCCCCOc1cc(N)ccc1C(=O)O | 135 µM | 1.76 | 5.1 | 2.85 | solubility [7]: soluble |
| Nc1ccc(C(=O)O)cc1[N+](=O)[O-] | 130 µM | 1.89 | 3.96 | 3.11 | solubility [7]: soluble |
| Nc1nc(O)c2c(n1)NCC(CNc1ccc(C(=O)O)c(Cl)c1)=N2 | – | – | – | – | Activity (Escherichia coli [8]): Active; Activity (Escherichia coli [9]): Active |
| Nc1ccc(C(=O)O)cc1I | 110 µM | 1.92 | 4.34 | 2.95 | – |
| CCCOc1cc(N)ccc1C(=O)O | 140 µM | 1.69 | 4.96 | 1.75 | solubility [7]: soluble |
| Nc1nc(=O)c2nc(CNc3ccc(C(=O)O)c(F)c3)cnc2[nH]1 | – | – | – | – | Activity (Enterococcus faecalis [5]): Active |
| Nc1ccc(C(=O)O)c(C(=O)O)c1 | 120 µM | 0.45 | – | – | – |
| Nc1nc(=O)c2nc(CNc3ccc(C(=O)O)c(Cl)c3)cnc2[nH]1 | – | – | – | – | growth inhibition (GI) (Enterococcus faecalis [10]): inactive; Activity (Enterococcus faecalis [5]): inactive |
| CCCCCCCOc1cc(N)ccc1C(=O)O | 90 µM | – | 5.3 | 3.77 | solubility [7]: soluble |
| Nc1ccc(C(=O)O)c(F)c1 | 125 µM | 1.27 | 4.13 | 1.62 | – |
| Nc1ccc(C(=O)O)cc1Cl | 100 µM | 1.81 | 4.35 | 2.38 | – |
| Cl.Nc1ccc(C(=O)O)c(N)c1 | 3.5 µM | 1 | 5.81 | – | – |
| Cl.Nc1ccc(C(=O)O)c(I)c1 | 30 µM | 1.79 | 3.81 | 2.4 | – |
| Nc1nc(O)c2c(n1)NCC(CNc1ccc(C(=O)O)cc1F)=N2 | – | – | – | – | Activity (Escherichia coli [8]): Active; Activity (Escherichia coli [9]): Active |
| Nc1ccc(C(=O)O)cc1C(=O)c1ccccc1 | 105 µM | – | 4.34 | – | solubility [7]: soluble |
| Nc1ccc(C(=O)O)cc1Br | 110 µM | 1.89 | 4.24 | 2.85 | pKa (physchem [2]): 4.31 |
| N#CSc1cc(C(=O)O)ccc1N | 190 µM | 1.68 | 4.52 | – | – |
| Cl.Nc1ccc(C(=O)O)c(Br)c1 | 8 µM | 1.67 | 3.69 | 2.38 | pKa (physchem [2]): 3.85 |
